Measured values from ChEMBL document CHEMBL4342479, “Reactive Oxygen Species (ROS)-Activatable Prodrug for Selective Activation of ATF6 after Ischemia/Reperfusion Injury” (ACS Med Chem Lett, 2020).
Activity calls are given as the source filed them. The rule behind the calls is not given here.

Experiments:
[1] = molecular target: T1, Cytochrome P450 1A2 (Homo sapiens, UniProt P05177); test: Drug metabolism assessed as recombinant CYP1A2 (unknown origin)-mediated oxidation incubated for 24 hrs in presence of NADP+ by LC-MS analysis; format: ADME; conditions: recombinant enzyme
T1 sequence (P05177 whole entry): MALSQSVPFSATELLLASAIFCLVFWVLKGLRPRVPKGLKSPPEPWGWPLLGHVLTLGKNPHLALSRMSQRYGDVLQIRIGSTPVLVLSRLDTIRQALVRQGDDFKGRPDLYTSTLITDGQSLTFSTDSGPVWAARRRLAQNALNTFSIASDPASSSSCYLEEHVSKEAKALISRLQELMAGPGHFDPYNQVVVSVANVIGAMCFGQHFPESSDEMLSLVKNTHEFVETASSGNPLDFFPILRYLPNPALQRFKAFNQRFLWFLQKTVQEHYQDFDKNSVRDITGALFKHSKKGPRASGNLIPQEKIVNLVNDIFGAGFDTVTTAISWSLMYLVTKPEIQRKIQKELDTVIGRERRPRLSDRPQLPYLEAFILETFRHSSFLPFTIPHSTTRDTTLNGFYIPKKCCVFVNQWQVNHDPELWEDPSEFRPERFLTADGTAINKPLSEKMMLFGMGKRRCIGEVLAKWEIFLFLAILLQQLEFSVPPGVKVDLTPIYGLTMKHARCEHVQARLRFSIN

[2] = Drug metabolism assessed as intact compound incubated for 24 hrs in presence of NADP+ and absence of recombinant CYP1A2 by LC-MS analysis
[3] = molecular target: T2, Cyclic AMP-dependent transcription factor ATF-6 alpha (Rattus norvegicus) (UniProt G3V909); test: Activation of ATF6 in NRVM isolated from Sprague-Dawley rat assessed as increase in GRP78 expression at 10 uM measured after 16 hrs by SYBR green dye-based qRT-PCR analysis
T2 sequence (whole entry): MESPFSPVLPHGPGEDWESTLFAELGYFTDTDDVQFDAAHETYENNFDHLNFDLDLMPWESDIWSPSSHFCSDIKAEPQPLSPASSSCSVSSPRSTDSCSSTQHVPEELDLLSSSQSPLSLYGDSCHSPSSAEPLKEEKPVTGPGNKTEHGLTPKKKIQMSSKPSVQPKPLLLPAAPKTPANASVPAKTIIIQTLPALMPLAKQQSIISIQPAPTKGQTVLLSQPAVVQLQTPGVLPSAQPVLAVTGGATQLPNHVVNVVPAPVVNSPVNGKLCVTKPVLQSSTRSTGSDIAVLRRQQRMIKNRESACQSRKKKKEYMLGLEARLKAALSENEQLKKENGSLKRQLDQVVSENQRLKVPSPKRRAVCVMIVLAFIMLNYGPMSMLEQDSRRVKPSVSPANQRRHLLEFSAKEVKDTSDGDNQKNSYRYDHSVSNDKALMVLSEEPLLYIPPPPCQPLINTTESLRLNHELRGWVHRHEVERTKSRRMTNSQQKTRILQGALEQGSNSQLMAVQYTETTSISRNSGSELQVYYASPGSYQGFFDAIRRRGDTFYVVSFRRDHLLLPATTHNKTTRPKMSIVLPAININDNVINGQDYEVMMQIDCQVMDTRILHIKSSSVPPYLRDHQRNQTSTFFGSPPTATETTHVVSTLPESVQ

[4] = molecular target: T2, Cyclic AMP-dependent transcription factor ATF-6 alpha (Rattus norvegicus); test: Activation of ATF6 in NRVM isolated from Sprague-Dawley rat assessed as increase in catalase expression at 10 uM measured after 16 hrs by SYBR green dye-based qRT-PCR analysis
[5] = species: Rattus norvegicus; test: Cytoprotection against hydrogen peroxide-induced toxicity in NRVM isolated from Sprague-Dawley rat assessed as increase in cell viability at 10 uM pretreated for 24 hrs followed by hydrogen peroxide challenge measured after 8 hrs by MTT assay; format: functional
[6] = molecular target: T2, Cyclic AMP-dependent transcription factor ATF-6 alpha (Rattus norvegicus); test: Activation of ATF6 in simulated-ischemia-reperfusion NRVM isolated from Sprague-Dawley rat assessed as increase in cell viability by measuring media LDH content at 10 uM followed by ischemia simulation for 8 hrs and subsequent reperfusion and compound treatment for 24 hrs by LDH assay
[7] = molecular target: T2, Cyclic AMP-dependent transcription factor ATF-6 alpha (Rattus norvegicus); test: Activation of ATF6 in simulated-ischemia-reperfusion NRVM isolated from Sprague-Dawley rat assessed as increase in cell viability by measuring media LDH content at 10 uM followed by ischemia simulation for 8 hrs and subsequent reperfusion and compound treatment for 24 hrs under normoxia condition by calcein-AM green dye based fluorescence microscopy
[8] = molecular target: T2, Cyclic AMP-dependent transcription factor ATF-6 alpha (Rattus norvegicus); test: Activation of ATF6 in NRVM isolated from Sprague-Dawley rat assessed as increase in catalase expression at 10 uM using compound pre-activated with hydrogen peroxide for 8 hrs prior to NRVM treatment and measured after 16 hrs by SYBR green dye-based qRT-PCR analysis
[9] = Stability of compound in HBS buffer at 1 mM at pH 7.3 and 37 degree C by HPLC or LC-MS analysis; format: physicochemical; conditions: pH 7.3, 1000 µM
[10] = Drug degradation in HBS buffer assessed as half life at 1 mM at pH 7.3 and 37 degree C by HPLC or LC-MS analysis; format: physicochemical
[11] = molecular target: T1, Cytochrome P450 1A2; test: Substrate activity at recombinant CYP1A2 (unknown origin) assessed as [4-[[4-methyl-2-(3-phenylpropanoylamino)phenoxy]methyl]phenyl]boronic acid formation incubated for 24 hrs in presence of NADP+ by LC-MS analysis; format: ADME; conditions: recombinant enzyme
[12] = molecular target: T2, Cyclic AMP-dependent transcription factor ATF-6 alpha (Rattus norvegicus); test: Activation of ATF6 in NRVM isolated from Sprague-Dawley rat assessed as increase in GRP78 expression at 10 uM using compound pre-activated with hydrogen peroxide for 8 hrs prior to NRVM treatment and measured after 16 hrs by SYBR green dye-based qRT-PCR analysis

| Drug metabolism [1] | Activity [3] | Activity [4] | Activity [8] | Stability [9] | half-life at 1000 µM [10] | Drug metabolism [11] | Activity [12] | Compound | Drug metabolism [2] | Activity [5] | Activity [6] | Activity [7] |
| --- | --- | --- | --- | --- | --- | --- | --- | --- | --- | --- | --- | --- |
| Metabolite_Detected | Active | Active |  |  |  |  |  | Cc1ccc(O)c(NC(=O)CCc2ccccc2)c1 | Metabolite not detected | Active | Active | Active |
|  |  |  | Active | Stable | 25.8 days | Metabolite_Notdetected | Active | Cc1ccc(OCc2ccc(B3OC(C)(C)C(C)(C)O3)cc2)c(NC(=O)CCc2ccccc2)c1 |  | Active | Active | Active |
|  |  |  | inactive |  |  |  | inactive | Cc1ccc(OCCc2ccc(B3OC(C)(C)C(C)(C)O3)cc2)c(NC(=O)CCc2ccccc2)c1 |  |  |  |  |
